In patent US9598390B2, “Bicyclo[2.2.2]acid GPR120 modulators” (BRISTOL-MYERS SQUIBB COMPANY, priority 2013, dated 2017):

What follows are compounds tested against T1, human GPR120 (Homo sapiens, UniProt Q5NUL3) (assay: GPR120 pERK AlphaScreen SureFire Assay (human GPR120 pERK assay)). Settings: CHO cells stably transfected with the short form of human GPR120 receptor.
T1 construct: expressed in transfected cells; host or cells: CHOA12 cells or CHO-K1 cells, stably transfected
T1 sequence (Q5NUL3 1-361): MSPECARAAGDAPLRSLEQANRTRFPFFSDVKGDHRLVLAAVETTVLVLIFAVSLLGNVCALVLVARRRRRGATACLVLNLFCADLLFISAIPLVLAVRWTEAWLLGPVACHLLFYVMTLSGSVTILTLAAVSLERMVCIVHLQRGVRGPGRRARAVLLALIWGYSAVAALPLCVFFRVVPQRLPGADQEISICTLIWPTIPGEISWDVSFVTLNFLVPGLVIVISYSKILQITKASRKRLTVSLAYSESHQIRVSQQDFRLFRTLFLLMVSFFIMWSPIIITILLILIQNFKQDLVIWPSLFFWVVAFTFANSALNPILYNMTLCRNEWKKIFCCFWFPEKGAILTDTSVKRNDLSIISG
Type: cell-based
Description: GPR120 activity was monitored by measuring phosphorylation of ERK (pERK), since G protein receptors are known to activate the ERK signaling cascade either directly and/or through recruitment of arrestin that serves as a scaffold for downstream signaling events.
GPR120 pERK AlphaScreen SureFire Assay
The human and mouse GPR120-mediated intracellular phosphorylated ERK assays were established using CHOAl2 cells stably transfected with the short form of human or mouse GPR120 receptor. Cells were cultured in growth medium consisting of F-12 media (Invitrogen Cat. #11765) with 5% Charcoal/Dextran FBS (Invitrogen Cat. #12676-029), 500 μg/mL GENETICIN® (Life Technologies Cat. #10131-027) and 250 μg/mL Zeocin (Invitrogen Cat. #R250-01). Cells were cryo preserved at a concentration of 2×10^7 cells/mL, in 90% Charcoal/Dextran FBS and 10% DMSO, and frozen in liquid nitrogen at a low passage number.
For the pERK assay, 2×10^7 cells/mL cryopreserved human and mouse cells were thawed rapidly in a 37° C. water bath and added to a T-225 flask containing 50 mL growth medium. The flasks were placed in a tissue culture incubator overnight (37° C., 5% CO2). The next day, cells were harvested with trypsin (Gibco Cat. #25300-054), resuspended in serum-containing growth medium and counted using a Cellometer and volume adjusted to a concentration of 0.6×10^6cells/mL. Cells were plated into 384-well clear bottom tissue culture plates (BD Cat. #353962) at 50 μL/well, for a density of 30,000 cells/well using a MULTIDROP® and incubated for 16-18 hours (overnight) at 37° C. with 5% CO2. The next day, cells were serum starved in 30 μL of F-12 media without any serum or antibiotics for 2 hours at 37° C.
Test compounds were 3-fold, 11-point serially diluted in DMSO in a REMP assay plate (Matrix Cat. #4307) by Tecan and 5 μL was transferred into an ECHO source plate (Labcyte Cat. #LC-0200). Cells were then stimulated with 50 nL of compound dilutions using ECHO liquid handler for 7 minutes at 37° C. Compounds ranged from final assay concentrations of 33.33 μM to 0.56 nM.
The media was then dumped and cells lysed with 20 μL of 1× Lysis buffer from the AlphaScreen SureFire Phospho-ERK 1/2 Kit (Perkin Elmer Cat. #6760617M). The lysis buffer was diluted 5-fold with water before use. The plate was agitated on a shaker for 10 minutes after which 2 μL was transferred into a 384-well white proxiplate (Perkin Elmer Cat. #6008289). The SureFire assay reagent mix was prepared by mixing 60 parts Reaction Buffer, 10 parts Activation Buffer, 1 part Donor Beads, 1 part Acceptor Beads (Perkin Elmer Cat. #TGRES10K). 3.5 μL/well of this reagent mix was manually added to the proxiplate with a multichannel pipettor. Plates were spun down at 1000 rpm for 2 minutes, followed by light-protected incubation at room temperature for 2 hours. The plates were read on the Alpha-technology compatible Envision multilabel plate reader using AlphaScreen protocol according to manufacturer's specifications. The agonist effect of compounds was expressed as 100×(average sample-average blank)/(average total−average blank) where sample is the luminescence activity in the presence of test compound, blank is equal to the luminescence activity in the presence of DMSO control and the total is signal induced by 50 μM linolenic acid as reference compound. Activation data for the test compound over a range of concentrations was plotted as percentage activation of the test compound (100%=maximum response). After correcting for background, EC50 values were determined. The EC50 is defined as the concentration of test compound which produces 50% of the maximal response and was quantified using the 4 parameter logistic equation to fit the data.
The human and mouse GPR120-mediated intracellular phosphorylated ERK assays were also established using CHO-K1 cells stably transfected with the short form of human or mouse GPR120 receptor. […]

Compound | EC50 [µM]
CC1(C)Cc2cc(Cl)cc(COC34CCC(CCC(=O)O)(CC3)CC4)c2O1 [Example 1, 3-(4-((5-Chloro-2,2-dimethyl-2,3-dihydrobenzofuran-7-yl)methoxy)bicyclo[2.2.2]octan-1-yl)propanoic acid] | 0.61
CC1(C)Cc2cc(Cl)cc(COC34CCC(CCCC(=O)O)(CC3)CC4)c2O1 [Example 2, 4-(4-((5-Chloro-2,2-dimethyl-2,3-dihydrobenzofuran-7-yl)methoxy)bicyclo[2.2.2]octan-1-yl)butanoic acid] | 2.47
N#Cc1cccc(OC23CCC(CCCC(=O)O)(CC2)CC3)c1 [Example 3, 4-(4-(3-Cyanophenoxy)bicyclo[2.2.2]octan-1-yl)butanoic acid] | 1.11
Cc1cc(COC23CCC(CCC(=O)O)(CC2)CC3)n(-c2ccc(Cl)cc2)n1 [Example 4, 3-(4-((1-(4-Chlorophenyl)-3-methyl-1H-pyrazol-5-yl)methoxy)bicyclo[2.2.2]octan-1-yl)propanoic acid] | 2.74
O=C(O)CCC12CCC(OCc3cccc(Oc4ccccc4)c3)(CC1)CC2 [Example 5, 3-(4-(3-Phenoxy-benzyloxy)bicyclo[2.2.2]octan-1-yl)propanoic acid] | 0.43
O=C(O)CCC12CCC(OCc3ccccc3Oc3ccccc3)(CC1)CC2 [Example 6, 3-(4-(2-Phenoxy-benzyloxy)bicyclo[2.2.2]octan-1-yl)propanoic acid] | 0.4
COc1cccc(COC23CCC(CCCC(=O)O)(CC2)CC3)c1 [Example 7, 4-(4-(3-Methoxy-benzyloxy)bicyclo[2.2.2]octan-1-yl)butanoic acid] | 6.91
O=C(O)CCC12CCC(OCc3cc(F)cc(Oc4ccccc4)c3)(CC1)CC2 [Example 8, 3-(4-(3-Fluoro-5-phenoxy-benzyloxy)bicyclo [2.2.2]octan-1-yl)propanoic acid] | 0.27
O=C(O)CCC12CCC(OCc3cc(F)ccc3Oc3ccccc3)(CC1)CC2 [Example 9, 3-(4-(5-Fluoro-2-phenoxybenzyloxy)bicyclo[2.2.2]octan-1-yl)propanoic acid] | 0.28

More lines, now with the values ahead:

EC50 [µM] | Compound
0.68 | O=C(O)COCC12CCC(OCc3cccc(Oc4ccccc4)c3)(CC1)CC2 [Example 10, 2-((4-(3-Phenoxybenzyloxy)bicyclo[2.2.2]octan-1-yl)methoxy)acetic acid]
0.87 | CC(C)Oc1cc(F)cc(COC23CCC(CCC(=O)O)(CC2)CC3)c1 [Example 11, 3-(4-(3-Fluoro-5-isopropoxybenzyloxy)bicyclo[2.2.2]octan-1-yl)propanoic acid]
0.54 | O=C(O)CCC12CCC(OCc3cc(F)cc(Oc4ccc(F)cc4)c3)(CC1)CC2 [Example 12, 3-(4-(3-Fluoro-5-(4-fluorophenoxy)benzyloxy)bicyclo[2.2.2]octan-1-yl)propanoic acid]
2.69 | CC1(C)Cc2cc(Cl)cc(OCC34CCC(/C=C/C(=O)O)(CC3)CC4)c2O1 [Example 13, (E)-3-(4-(((5-Chloro-2,2-dimethyl-2,3-dihydrobenzofuran-7-yl)oxy)methyl)bicyclo[2.2.2]octan-1-yl)acrylic acid]
0.9 | CC1(C)Cc2cccc(OCC34CCC(CCC(=O)O)(CC3)CC4)c2O1 [Example 14, 3-(4-(((2,2-Dimethyl-2,3-dihydrobenzofuran-7-yl)oxy)methyl)bicyclo[2.2.2]octan-1-yl)propanoic acid]
1.34 | CC1(C)Cc2cc(Cl)cc(OCC34CCC(CCC(=O)O)(CC3)CC4)c2O1 [Example 15, 3-(4-(((5-Chloro-2,2-dimethyl-2,3-dihydrobenzofuran-7-yl)oxy)methyl)bicyclo[2.2.2]octan-1-yl)propanoic acid]
